Reference: ChEMBL document CHEMBL1144578, “Chemotherapy of leishmaniasis Part VI: synthesis and bioevaluation of some novel terpenyl S,N- and N,N-acetals” (Eur J Med Chem, 2007)
Active and inactive are the calls of the source. The rule behind the calls is not given here.

Key:
[1] = system: Leishmania donovani; test: Inhibition of Leishmania donovani HOM/IN/80/DD8 in hamster at 50 mg/kg, ip after 7 days; type: functional; details: for inhibition in vivo at 50 mg/kg: HOM/IN/80/DD8, ip, 168 h, route intraperitoneal
[2] = system: Leishmania donovani; test: Inhibition of Leishmania donovani HOM/IN/80/DD8 in hamster at 50 mg/kg, po after 28 days; type: functional; details: HOM/IN/80/DD8, 672 h
[3] = system: Leishmania donovani; test: Inhibition of Leishmania donovani HOM/IN/80/DD8 in hamster at 50 mg/kg, ip after 28 days; type: functional; details: HOM/IN/80/DD8, ip, 672 h, route intraperitoneal
[4] = system: Leishmania donovani; test: Inhibition of Leishmania donovani HOM/IN/80/DD8 in hamster at 50 mg/kg, po after 7 days; type: functional; details: HOM/IN/80/DD8, 168 h
[5] = system: Leishmania donovani; test: Inhibition of Leishmania donovani HOM/IN/80/DD8 in hamster at 12.5 mg/kg, po after 7 days; type: functional; details: HOM/IN/80/DD8, 168 h
[6] = system: Leishmania donovani; test: Inhibition of Leishmania donovani HOM/IN/80/DD8 in hamster at 12.5 mg/kg, po after 28 days; type: functional; details: HOM/IN/80/DD8, 672 h
[7] = system: Hamster; test: Toxicity in hamster at 50 mg/kg; type: organism-based; parameters: dose 50 mg/kg; details: cricetinae, in vivo

How did the Activity [1] turn out when `CS/C(=C/C(=O)/C=C/C1=C(C)CCCC1(C)C)Nc1ccccc1` was run?
Its Activity is “inactive”.

`COc1ccc(N/C(=C\C(=O)/C=C/C2=C(C)CCCC2(C)C)SC)cc1` was tested. Which inhibition in vivo at 50 mg/kg [1] did it give?
Its inhibition in vivo at 50 mg/kg is 52%.

With `CC1=C(/C=C/C(=O)C=C2NCCN2)C(C)(C)CCC1` as the molecule, how does the inhibition in vivo at 50 mg/kg [2] read?
The inhibition in vivo at 50 mg/kg was 71%.

And the inhibition in vivo at 50 mg/kg [3]?
The inhibition in vivo at 50 mg/kg was 65%.

And the inhibition in vivo at 50 mg/kg [1]?
Its inhibition in vivo at 50 mg/kg is 30%.

And the inhibition in vivo at 50 mg/kg [4]?
The inhibition in vivo at 50 mg/kg was 40%.

What does the source list for `CCCCCCCCCCCCCCCCOP(=O)([O-])OCC[N+](C)(C)C` [MILTEFOSINE]?
inhibition in vivo at 12.5 mg/kg [5]: 94%; inhibition in vivo at 12.5 mg/kg [6]: 69%

With `CC1=C(/C=C/C(=O)C=C(N2CCOCC2)N2CCOCC2)C(C)(C)CCC1` as the molecule, how does the Activity [1] read?
The Activity was “inactive”.

With `CS/C(=C/C(=O)/C=C/C1=C(C)CCCC1(C)C)NC1CCCCC1` as the molecule, how does the inhibition in vivo at 50 mg/kg [1] read?
The inhibition in vivo at 50 mg/kg was 46%.

Which Activity [7] does the source give for `CC1=C(/C=C/C(=O)C=C(N2CCNCC2)N2CCNCC2)C(C)(C)CCC1` here?
Its Activity is “Toxic”.

With `CS/C(=C/C(=O)/C=C/C1=C(C)CCCC1(C)C)Nc1cccc(F)c1` as the molecule, how does the inhibition in vivo at 50 mg/kg [1] read?
Its inhibition in vivo at 50 mg/kg is 53%.

How did the inhibition in vivo at 50 mg/kg [1] turn out when `CS/C(=C/C(=O)/C=C/C1=C(C)CCCC1(C)C)Nc1ccc(F)cc1` was run?
Its inhibition in vivo at 50 mg/kg is 31%.

How did the inhibition in vivo at 50 mg/kg [1] turn out when `CS/C(=C/C(=O)/C=C/C1=C(C)CCCC1(C)C)Nc1ccc(Cl)cc1` was run?
Its inhibition in vivo at 50 mg/kg is 18%.

With `CCN(/C(=C\C(=O)/C=C/C1=C(C)CCCC1(C)C)SC)c1ccccc1` as the molecule, how does the Activity [1] read?
The Activity was “inactive”.
